Values of other authors, collected in patent publication EP1556366B1, “PROCESS FOR THE E[…] OLEFINS” (Degussa AG, priority 2002, dated 2004).
Read-outs that look alike come from different tables or passages of the source.

Structure (SMILES)	pkB	pkB (Table 2, nitrogen bases)
CN(C)C [Me3N, trimethyl amine]	4.26	4.26
CN [MeNH2, methyl amine]	3.36	3.36
